Laboratory results published in PubChem BioAssay (NCI).
Several values for one entry are separate records, joined by “and”; a condition that tells them apart may be missing. Identical values can stand only once.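 Following 48 hours of exposure in 96-well plates, responses at five concentrations were used to interpolate endpoints linearly. GI50 is the concentration that inhibits growth by half. The concentration for full growth arrest is given as TGI.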

Key:
Assay in all cases: DTP human tumour cell line panel, 48 h
HCT-15 colon = tested on: HCT-15 colon
HT29 colon = tested on: HT29 colon
LOX IMVI melanoma = tested on: LOX IMVI melanoma
MOLT-4 leukemia = tested on: MOLT-4 leukemia
NCI-H226 lung = tested on: NCI-H226 lung
NCI-H23 lung = tested on: NCI-H23 lung
OVCAR-8 ovarian = tested on: OVCAR-8 ovarian
SNB-75 CNS = tested on: SNB-75 CNS
UACC-62 melanoma = tested on: UACC-62 melanoma
SK-OV-3 ovarian = tested on: SK-OV-3 ovarian

C=C/C(C)=C\CC1[C@](C)(O)CC[C@H]2C(C)(C)C(=O)CC[C@]12C (stereo partly specified)
TGI (HCT-15 colon): > 100 µM
TGI (HT29 colon): > 100 µM
TGI (LOX IMVI melanoma): > 100 µM
TGI (MOLT-4 leukemia): 79.3 µM
TGI (NCI-H226 lung): > 100 µM
TGI (NCI-H23 lung): > 100 µM
TGI (OVCAR-8 ovarian): > 100 µM
TGI (SNB-75 CNS): > 100 µM
TGI (UACC-62 melanoma): > 100 µM

ClCCCc1ccccc1C1=NCCc2ccccc21
TGI (HCT-15 colon): > 100 µM
TGI (HT29 colon): > 100 µM
TGI (MOLT-4 leukemia): > 100 µM
TGI (NCI-H226 lung): > 100 µM
TGI (NCI-H23 lung): > 100 µM
TGI (OVCAR-8 ovarian): > 100 µM
TGI (SK-OV-3 ovarian): > 100 µM
TGI (SNB-75 CNS): > 100 µM
TGI (UACC-62 melanoma): > 100 µM

CCCCC(=O)c1c(O)nc2sccn2c1=O
TGI (HCT-15 colon): > 10 µM
TGI (HT29 colon): > 10 µM
TGI (LOX IMVI melanoma): > 10 µM
TGI (MOLT-4 leukemia): > 10 µM
TGI (NCI-H226 lung): > 10 µM
TGI (NCI-H23 lung): > 10 µM
TGI (OVCAR-8 ovarian): > 10 µM
TGI (SK-OV-3 ovarian): > 10 µM
TGI (SNB-75 CNS): > 10 µM
TGI (UACC-62 melanoma): > 10 µM

O=c1[nH]nc(-c2ccccc2)n1/N=C\c1ccccc1
TGI (HCT-15 colon): > 100 µM
TGI (HT29 colon): > 100 µM
TGI (LOX IMVI melanoma): > 100 µM
TGI (MOLT-4 leukemia): > 100 µM
TGI (NCI-H226 lung): > 100 µM
TGI (NCI-H23 lung): > 100 µM
TGI (OVCAR-8 ovarian): > 100 µM
TGI (SNB-75 CNS): > 100 µM
TGI (UACC-62 melanoma): > 100 µM

O=[N+]([O-])c1ccc2sc(C=Nc3cnccn3)cc2c1
TGI (HCT-15 colon): > 100 µM
TGI (HT29 colon): > 100 µM
TGI (LOX IMVI melanoma): 60.6 µM
TGI (MOLT-4 leukemia): 34.3 µM
TGI (NCI-H23 lung): > 100 µM
TGI (OVCAR-8 ovarian): > 100 µM
TGI (SK-OV-3 ovarian): > 100 µM
TGI (SNB-75 CNS): 63.5 µM
TGI (UACC-62 melanoma): 53.1 µM

O=C1NC(=O)C(C(CC(=O)c2ccc([N+](=O)[O-])cc2)c2ccccc2)C(=O)N1 (stereo unspecified)
TGI (HCT-15 colon): > 100 µM
TGI (HT29 colon): > 100 µM
TGI (LOX IMVI melanoma): 38.7 µM
TGI (MOLT-4 leukemia): > 100 µM
TGI (NCI-H226 lung): > 100 µM
TGI (NCI-H23 lung): 95.1 µM
TGI (OVCAR-8 ovarian): > 100 µM
TGI (SK-OV-3 ovarian): > 100 µM
TGI (SNB-75 CNS): > 100 µM
TGI (UACC-62 melanoma): > 100 µM

[Cl][Sn]([c]1ccccc1)([c]1ccccc1)[c]1ccccc1
GI50 (NCI-H226 lung): 0.194 µM and 0.271 µM and 0.278 µM
TGI (NCI-H226 lung): 0.423 µM and 0.484 µM and 0.433 µM
GI50 (NCI-H23 lung): 0.0815 µM and 0.0133 µM
TGI (NCI-H23 lung): 0.285 µM and 0.0456 µM
GI50 (SK-OV-3 ovarian): 0.239 µM and 0.178 µM
TGI (SK-OV-3 ovarian): 0.696 µM and 0.335 µM

CSCSSC
TGI (HCT-15 colon): > 100 µM
TGI (HT29 colon): > 100 µM
TGI (LOX IMVI melanoma): > 100 µM
TGI (MOLT-4 leukemia): 90.3 µM
TGI (NCI-H226 lung): > 100 µM
TGI (NCI-H23 lung): > 100 µM
TGI (OVCAR-8 ovarian): > 100 µM
TGI (SK-OV-3 ovarian): > 100 µM
TGI (SNB-75 CNS): > 100 µM
TGI (UACC-62 melanoma): > 100 µM

CC(=O)OCC1OC(SC2=N/C(=C\c3ccc(Br)s3)C(=O)N2CN2CCOCC2)C(OC(C)=O)C(OC(C)=O)C1OC(C)=O (stereo unspecified)
TGI (HCT-15 colon): 49.1 µM
TGI (HT29 colon): 34.2 µM
TGI (LOX IMVI melanoma): 26.8 µM
TGI (MOLT-4 leukemia): 52.8 µM
TGI (NCI-H226 lung): 32.5 µM
TGI (NCI-H23 lung): 27.2 µM
TGI (OVCAR-8 ovarian): 37 µM
TGI (SNB-75 CNS): 68.3 µM
TGI (UACC-62 melanoma): 32.1 µM

NCCCN(CCCN(C(=O)Nc1ccccc1)c1ccccc1)C(=O)Nc1ccccc1
TGI (HCT-15 colon): > 100 µM
TGI (HT29 colon): > 100 µM
TGI (LOX IMVI melanoma): 56.6 µM
TGI (MOLT-4 leukemia): > 100 µM
TGI (NCI-H226 lung): > 100 µM
TGI (NCI-H23 lung): > 100 µM
TGI (OVCAR-8 ovarian): > 100 µM
TGI (SK-OV-3 ovarian): > 100 µM
TGI (SNB-75 CNS): 77.6 µM
TGI (UACC-62 melanoma): 58 µM

CCCC(=O)NC(Nc1ccc(S(=O)(=O)Nc2cc(C)on2)cc1)(C(=O)OCC)C(F)(F)F (stereo unspecified)
TGI (HCT-15 colon): > 100 µM
TGI (HT29 colon): > 100 µM
TGI (LOX IMVI melanoma): > 100 µM
TGI (MOLT-4 leukemia): > 100 µM
TGI (NCI-H226 lung): > 100 µM
TGI (NCI-H23 lung): > 100 µM
TGI (OVCAR-8 ovarian): > 100 µM
TGI (SK-OV-3 ovarian): > 100 µM
TGI (SNB-75 CNS): > 100 µM
TGI (UACC-62 melanoma): > 100 µM
